The values that follow are results of earlier work, collected in patent US20140349947A1, “HAIR GROWTH AGENT (EMBODIMENTS) AND METHOD FOR HAIR REGROWTH” (priority 2012, published 2014).

Experiment in series [1]: not given
This is another data set of the same source.

Where [2] appears, read: in ointments and gels, dose up to 1,000 IU/g.

In the case of Low molecular weight heparin, the Bioavailability entry is reported as “high”.

On to heparin sodium [Unfractionated heparin], for which the Bioavailability result is listed as “low”. Further, in series [1] (after a single skin application), the “Duration of the effects of heparin in tissues” value is on record as “up to 8 hours”. Also, the “Part of preparation deposited in the upper layers of skin” value in series [1] (after application of ointment or gel) is reported as “up to 50%”. Also, in series [1] (setting [2]), the “Effect on bleeding time” value is on record as “does not affect the bleeding time” and the Systemic effect entry is “does not have a systemic effect”.
